The results in this text go back to article PMC13197777, “Distinct 2-phenylimidazo[1,2-a]pyridine derivatives that inhibit breast cancer cell proliferation identified as AHR ligands” (iScience, 2026).

In one data set the test system is MCF-7 luc D538G. Briefly: Clonogenic assay (clonal expansion), MCF-7 cells with D538G ER mutation. The class given is cell-based. The settings on record: Homo sapiens, MCF7, 336 h. As to the method:
Cells were seeded at a density of 1–2×10^3 cells/well in a 6-well plate and treated with increasing concentrations of the X compounds for 14–21 days. Medium and compounds were renewed every 7 days. The experiments were terminated by fixing the cells with methanol and the colonies formed were visualized after staining with 0.5% crystal violet (w/v) in 20% methanol (v/v). Plates were photographed and the area covered by the colonies was calculated using the ColonyArea Plugin for Fiji (RRID:SCR_003070).[20]

The test system of a further data set is CTC-ITB-01 cells. As to the kind of experiment: cells. The data set is classed as cell-based. The conditions noted are these: for CC50: Homo sapiens, read-out: LC50. As for the experimental part:
LC50 values were measured using the CyQUANT NF Cell Proliferation Assay Kit (Thermo Fisher). CTC-ITB-01 cells were plated at a density of 2x10^3 cells/well in 96-well plates and treated the following day with serial dilutions of the test compounds. After incubation for the indicated time, cells were stained with CyQUANT dye according to the manufacturer’s protocol and incubated at 37°C for 30 min. Fluorescence was measured using a Tecan Infinite M Nano+ (excitation: 485 nm; emission: 530 nm). For the calculation of the LC50 the fluorescence was plotted against the Log10 of the inhibitor concentration in nM as x values and the LC50 values were calculated with 95% confidence intervals (n = 4).

A further data set deals with T1, AHR (Homo sapiens, UniProt P35869).
T1 construct: endogenous in cells; host or cells: HAHLH (HeLa with XRE-luciferase reporter)
T1 sequence (P35869 11-848): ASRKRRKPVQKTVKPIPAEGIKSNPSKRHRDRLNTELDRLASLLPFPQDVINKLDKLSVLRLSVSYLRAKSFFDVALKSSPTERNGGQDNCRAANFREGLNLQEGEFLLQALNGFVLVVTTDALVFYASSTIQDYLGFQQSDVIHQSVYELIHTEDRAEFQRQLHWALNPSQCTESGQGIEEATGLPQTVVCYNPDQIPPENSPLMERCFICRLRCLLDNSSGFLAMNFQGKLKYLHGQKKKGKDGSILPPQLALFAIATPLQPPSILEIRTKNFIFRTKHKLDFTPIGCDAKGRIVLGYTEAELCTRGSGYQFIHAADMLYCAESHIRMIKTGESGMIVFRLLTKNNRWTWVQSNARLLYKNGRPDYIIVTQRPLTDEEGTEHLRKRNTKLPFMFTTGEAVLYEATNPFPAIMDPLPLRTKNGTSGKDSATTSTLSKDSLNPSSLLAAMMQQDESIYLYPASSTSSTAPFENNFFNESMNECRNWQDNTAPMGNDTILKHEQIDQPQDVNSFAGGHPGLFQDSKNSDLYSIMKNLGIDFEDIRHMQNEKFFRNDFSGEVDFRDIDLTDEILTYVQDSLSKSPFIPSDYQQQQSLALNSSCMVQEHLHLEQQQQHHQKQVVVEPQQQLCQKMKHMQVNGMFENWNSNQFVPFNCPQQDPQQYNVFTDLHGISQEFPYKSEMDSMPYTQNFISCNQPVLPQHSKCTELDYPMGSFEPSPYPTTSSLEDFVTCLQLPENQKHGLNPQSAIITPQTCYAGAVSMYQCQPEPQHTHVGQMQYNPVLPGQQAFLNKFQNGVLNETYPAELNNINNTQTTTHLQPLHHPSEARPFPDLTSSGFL
Briefly: AHR luciferase reporter assay in HAHLH cells. The class given is cell-based. The settings on record: 8 h; for EC50: % of maximal luciferase activity with dioxin 10 nM, read-out: EC50 AHR transactivation. An excerpt: To characterize the chemical induced AHR activity, we used the already established HAHLH reporter cell lines obtained by stably expression of HeLa cells with the dioxin-responsive gene XRE(TnGCGTG)3-tata-luciferase-Luc-hygromycin plasmid.[29] The reporter HELN hERα cell line was obtained by transfecting human HeLa cells with the ERE-responsive gene ERE-βGlobin-luciferase-Luc-neomycin and the pSG5-hERα-puromycin plasmids as previously described.[59] To determine the action of the chemical on AHR and hERα activity, cells were seeded at a density of 50,000 cells per well in 96-well white opaque tissue culture plates (Greiner CellStar) in 150 μL of Dulbecco’s Modified Eagle Medium: Nutrient Mixture F-12 (DMEM/F- 12) without phenol red and 1 g/L glucose and supplemented with 5% stripped fetal bovine serum, 100 units/mL of penicillin, 100 μg/mL of streptomycin (test medium). Twenty-four hours later, chemicals to be tested were added at 4x concentration in culture medium, and cells were incubated at 37 °C for 8 h (HAhLH cells) or 24 h (HELN hERα cells). At the end of the incubation period, culture medium was replaced with test medium containing 0.3 mM luciferin and luciferase activity was measured for 2 s in intact living cells using a MicroBeta Wallac luminometer (PerkinElmer). Tests were performed in quadruplicate at 4x concentration in the same medium in at least 4 independent experiments. Results were expressed as % of the maximal luciferase activity. […] Effective concentration (ECs) for a given compound, EC50 is defined as the concentration inducing 50% of its maximal effect. The EC50 values were calculated including the adjustment for the basal activity of the cell line.
On the technique in general: Reporter assays use an easily measured gene product as a stand-in for the process of interest.

The nature of data set [1]: Compound stability in aqueous environment. The class given is physicochemical. The settings on record: 12.5 μM, HEPES pH 7.4/acetonitrile 3:2, 1% DMSO, 21 °C, 5 days. As for the experimental part: The stability of the compounds was evaluated at a concentration of 12.5 μM in a 3:2 mixture of buffer (HEPES, 0.1 M, pH 7.4) and acetonitrile, with 1% DMSO. Acetonitrile was added because the concentration of 12.5 μM exceeded the thermodynamic solubility of the compounds in the buffer. This addition thereby prevented the formation of precipitates and a gradual decrease in compound concentration during the measurement. The resulting solution was stirred at 21 °C in a sealed vial (crimp neck vials, 5 mL, clear (Cat. No. 548-0611A) in combination with natural rubber septa (548-0565A) and aluminum crimp caps (548-3278A), VWR International) for 5 days. […] The AUC measured was subsequently plotted as a function of the incubation time (Figure S3). No signs of decomposition could be observed over the given time.

Data set [2] deals with AHR target genes CYP1A1, CYP1B1, ALDH3A1. The settings on record: human, 16 h, 1 µM.
Where [3] appears, read: read-out: IC50 clonal expansion, Figure 1B, MCF-7 luc D538G, absence of E2, 14 days.
The mark [4] stands for this setting: read-out: IC50 clonal expansion, Figure 1C, MCF-7 luc D538G + 10 nM E2, 14 days.

Structures are written as SMILES. Like-named read-outs stand apart in the source and are kept apart here.

Take `Fc1ccc(-c2cn3cc(C(F)(F)F)cc(Cl)c3n2)cc1` [X15695]: the IC50 in the data set on MCF-7 luc D538G (setting [3]) amounted to 11.4 nM; in the data set with MCF-7 luc D538G (setting [4]), 5.34 nM; with MCF-7 luc D538G (read-out: IC50 clonal expansion, Figure 1D, MCF-7 luc D538G, absence of E2, 14 days) it was 11.4 nM; with MCF-7 luc D538G (read-out: IC50 clonal expansion, Figure 1E, MCF-7 luc D538G + 10 nM E2, 14 days), 5.34 nM. For the same molecule, the “LC50 fold lower compared to fulvestrant” value with CTC-ITB-01 cells (CTC-ITB-01, 48 h and 120 h) is listed as 20 fold. Further, the figures for the CC50 with CTC-ITB-01 cells (48 h) and with CTC-ITB-01 cells (120 h) were 400 nM and 300 nM, respectively. Also, the “AHR transcriptional activity (reporter), in words” value at AHR was “potency that surpassed that of the classical AHR ligand dioxin”. In addition, the EC50 on AHR turned out to be 0.14 nM. For the same molecule, the “stability in aqueous environment” value in data set [1] is recorded as “no obvious decomposition detected”. The “expression of AHR target genes (RT-PCR)” value in data set [2] was “enhanced the transcriptional activity of the AHR target genes in both MCF-7 and T47D cells”.
For the molecule `Cc1cc(Cl)c2nc(-c3ccc(F)cc3)cn2c1` [X19724], the half-maximal inhibitory concentration (IC50) in the data set on MCF-7 luc D538G (setting [3]) was 324 nM. In the data set with MCF-7 luc D538G (setting [4]), the IC50 was determined as 31.6 nM. Moreover, on AHR, the “AHR transcriptional activity (reporter), in words” value was “only modest enhancement” and the EC50 was found to be 1.37 nM.
The corresponding values for `Cc1cc(Cl)c2nc(-c3ccccc3)cn2c1` [X19728] are 74.4 nM, 48 nM, “only modest enhancement” and 3.94 nM.

As usually defined, the IC50 is the concentration that inhibits the measured activity by half. One may read the EC50 as the concentration needed to bring the measured effect to its halfway point.
